The values that follow come from patent US9376418B2, “Substituted pyridine spleen tyrosine kinase (SYK) inhibitors” (Merck Sharp & Dohme Corp., priority 2012, dated 2016).

A value given as a limit tells only on which side of the number the result lay.

The target in this experiment is T1, recombinant human GST-SYK (Homo sapiens, UniProt P43405).
T1 construct: purchased Carna Biosciences 08-176
Put plainly: Homogeneous Time-Resolved Fluorescence (HTRF) assay for the recombinant human Syk enzyme. The class given is biochemical. The conditions noted are these: HTRF assay, recombinant human GST-SYK; IC50 given as class symbols; read-out: rhSYK Activity. As for the experimental part:
Homogeneous Time-Resolved Fluorescence (HTRF) Assay for the Recombinant Human Syk Enzyme
A recombinant GST-hSYK fusion protein was used to measure potency of compounds to inhibit human Syk activity. The recombinant human GST-SYK (Carna Biosciences #08-176) ([…]) was incubated with various concentrations of the inhibitor diluted in DMSO (0.1% final concentration) for 10 minutes at room temperature in 15 mM Tris-HCl (pH 7.5), 0.01% tween 20, 2 mM DTT in 384 well plate format. To initiate the reaction the biotinylated substrate peptide (250 nM final concentration) that contains the phosphorylation site for Syk was added with magnesium (5 mM final concentration) and ATP (25 μM final concentration). Final volume of the reaction was 10 μL. Phosphorylation of the peptide was allowed to proceed for 45′ at room temperature. To quench the reaction and detect the phosphorylated product, 2 nM of a Europium-anti-phosphotyrosine antibody (Perkin Elmer #AD0161) and 70 nM SA-APC (Perkin-Elmer #CR130-100) were added together in 15 mM Tris pH 7.5, 40 mM EDTA, 0.01% tween 20. Final volume of the quenching solution was 10 μL. The resulting HTRF signal was measured after 30 minutes on an EnVision (Perkin-Elmer) reader using a time-resolved fluorescence protocol.
On the technique in general: In TR-FRET formats the signal depends on donor and acceptor labels being close together.
Consider `COc1ccnc(Nc2cc(C)cc(-c3ccc(CCC(=O)O)cn3)c2)n1` [Example 2.26, 3-(6-{3-[(4-methoxypyrimidin-2-yl)amino]-5-methylphenyl}pyridin-3-yl)propanoic acid], for which the IC50 is 100 to 1000 nM.

As for `Cc1cc(Nc2nccc(C(F)(F)F)n2)cc(-c2ccc(CCC(=O)O)cn2)c1` [Example 2.30, 3-[6-(3-methyl-5-{[4-(trifluoromethyl)pyrimidin-2-yl]amino}phenyl)pyridin-3-yl]propanoic acid], the IC50 was below 100 nM.

Consider `Cc1cc(Nc2nccc(C(F)(F)F)n2)cc(-c2cccc(CCC(=O)O)n2)c1` [Example 2.31, 3-[6-(3-methyl-5-{[4-(trifluoromethyl)pyrimidin-2-yl]amino}phenyl)pyridin-2-yl]propanoic acid], for which the IC50 is below 100 nM.

Take `CCOC(=O)CCc1cccc(-c2cc(C)cc(Nc3nccc(C)n3)c2)n1` [Example 2.32, ethyl 3-(6-{3-methyl-5-[(4-methylpyrimidin-2-yl)amino]phenyl}pyridin-2-yl)propanoate]: the IC50 was in the range of 1000 to 10000 nM.

For the compound `CCOC(=O)CCc1ccnc(-c2cc(C)cc(Nc3nccc(C)n3)c2)c1` [Example 2.33, ethyl 3-(2-{3-methyl-5-[(4-methylpyrimidin-2-yl)amino]phenyl}pyridin-4-yl)propanoate], the IC50 is 100 to 1000 nM.

With `Cc1cc(Nc2nccc(C)n2)cc(-c2ccc(CCC(=O)O)cn2)c1` [Example 2.34, 3-(6-{3-methyl-5-[(4-methylpyrimidin-2-yl)amino]phenyl}pyridin-3-yl)propanoic acid], the IC50 fell in the range of 100 to 1000 nM.

Turning to `Cc1cc(Nc2nccc(C)n2)cc(-c2cccc(CCC(=O)O)n2)c1` [Example 2.35, 3-(6-{3-methyl-5-[(4-methylpyrimidin-2-yl)amino]phenyl}pyridin-2-yl)propanoic acid], the IC50 is 100 to 1000 nM.

`CCOC(=O)CCc1ccc(-c2cc(C)cc(Nc3nccc(C)n3)c2)nc1` [Example 2.36, ethyl 3-(6-{3-methyl-5-[(4-methylpyrimidin-2-yl)amino]phenyl}pyridin-3-yl)propanoate]: the IC50 lay in the range of 1000 to 10000 nM.

Take `CCOC(=O)CCc1ccc(-c2cc(C)cc(Nc3nccc(C4CC4)n3)c2)nc1` [Example 2.37, ethyl 3-(6-{3-[(4-cyclopropylpyrimidin-2-yl)amino]-5-methylphenyl}pyridin-3-yl)propanoate]: the IC50 is 100 to 1000 nM.

In the case of `CCOC(=O)CCc1cccc(-c2cc(C)cc(Nc3nccc(C4CC4)n3)c2)n1` [Example 2.38, ethyl 3-(6-{3-[(4-cyclopropylpyrimidin-2-yl)amino]-5-methylphenyl}pyridin-2-yl)propanoate], the IC50 was 100 to 1000 nM.

As to `CCOC(=O)CCc1ccnc(-c2cc(C)cc(Nc3nccc(C4CC4)n3)c2)c1` [Example 2.39, ethyl 3-(2-{3-[(4-cyclopropylpyrimidin-2-yl)amino]-5-methylphenyl}pyridin-4-yl)propanoate], the IC50 lay in the range of 100 to 1000 nM.

In the case of `Cc1cc(Nc2nccc(C3CC3)n2)cc(-c2ccc(CCC(=O)O)cn2)c1` [Example 2.40, 3-(6-{3-[(4-cyclopropylpyrimidin-2-yl)amino]-5-methylphenyl}pyridin-3-yl)propanoic acid], the IC50 was below 100 nM.

For the compound `COc1ccc(-c2cccc(Nc3nccc(C(F)(F)F)n3)c2)cn1` [Example 2.41, N-[3-(6-methoxypyridin-3-yl)phenyl]-4-(trifluoromethyl)pyrimidin-2-amine], the IC50 is 100 to 1000 nM.

On to `OC(c1ccccc1)c1ccc(-c2cccc(Nc3nccc(C(F)(F)F)n3)c2)cn1` (stereo not shown) [Example 2.42, phenyl[5-(3-{[4-(trifluoromethyl)pyrimidin-2-yl]amino}phenyl)pyridin-2-yl]methanol], for which the IC50 lay in the range of 100 to 1000 nM.

`Oc1ccc(-c2cccc(Nc3nccc(C(F)(F)F)n3)c2)cn1` [Example 2.43, 5-(3-{[4-(trifluoromethyl)pyrimidin-2-yl]amino}phenyl)pyridin-2-ol]: the IC50 lay within 100 to 1000 nM.

On to `O=c1[nH]c2cc(-c3cccc(Nc4nccc(C(F)(F)F)n4)c3)cnc2[nH]1` [Example 2.44, 6-(3-{[4-(trifluoromethyl)pyrimidin-2-yl]amino}phenyl)-1,3-dihydro-2H-imidazo[4,5-b]pyridin-2-one], for which the IC50 is below 100 nM.

Take `Cc1cc(Nc2nccc(C(F)(F)F)n2)cc(-c2cccnc2F)c1` [Example 2.45, N-[3-(2-fluoropyridin-3-yl)-5-methylphenyl]-4-(trifluoromethyl)pyrimidin-2-amine]: the IC50 was below 100 nM.

With `Cc1cc(Nc2nccc(C(F)(F)F)n2)cc(-c2ccc(C#N)nc2)c1` [Example 2.46, 5-(3-methyl-5-{[4-(trifluoromethyl)pyrimidin-2-yl]amino}phenyl)pyridine-2-carbonitrile], the IC50 is below 100 nM.

For `Cc1cc(Nc2nccc(C(F)(F)F)n2)cc(-c2cnc3c(c2)CCN3)c1` [Example 2.47, N-[3-(2,3-dihydro-1H-pyrrolo[2,3-b]pyridin-5-yl)-5-methylphenyl]-4-(trifluoromethyl)pyrimidin-2-amine], the IC50 was below 100 nM.

As to `CC(=O)c1cncc(-c2cc(C)cc(Nc3nccc(C(F)(F)F)n3)c2)c1` [Example 2.48, 1-[5-(3-methyl-5-{[4-(trifluoromethyl)pyrimidin-2-yl]amino}phenyl)pyridin-3-yl]ethanone], the IC50 is below 100 nM.

For the compound `CNCc1ccc(-c2cc(C)cc(Nc3nccc(C(F)(F)F)n3)c2)cn1` [Example 2.49, N-(3-methyl-5-{6-[(methylamino)methyl]pyridin-3-yl}phenyl)-4-(trifluoromethyl)pyrimidin-2-amine], the IC50 is below 100 nM.

Take `Cc1cc(Nc2nccc(C(F)(F)F)n2)cc(-c2cnc(O)c(N)c2C)c1` [Example 2.51, 3-amino-4-methyl-5-(3-methyl-5-{[4-(trifluoromethyl)pyrimidin-2-yl]amino}phenyl)pyridin-2-ol]: the IC50 lay in the range of 100 to 1000 nM.

As to `Cc1cc(Nc2nccc(C(F)(F)F)n2)cc(-c2cnc3c(c2)OCCN3)c1` [Example 2.52, N-[3-(3,4-dihydro-2H-pyrido[3,2-b][1,4]oxazin-7-yl)-5-methylphenyl]-4-(trifluoromethyl)pyrimidin-2-amine], the IC50 is below 100 nM.

For `COC(=O)c1cncc(-c2cc(C)cc(Nc3nccc(C(F)(F)F)n3)c2)c1` [Example 2.53, methyl 5-(3-methyl-5-{[4-(trifluoromethyl)pyrimidin-2-yl]amino}phenyl)pyridine-3-carboxylate], the IC50 was 100 to 1000 nM.

For the compound `Cc1cc(Nc2nccc(C(F)(F)F)n2)cc(-c2cncc(C(F)(F)F)c2)c1` [Example 2.54, N-{3-methyl-5-[5-(trifluoromethyl)pyridin-3-yl]phenyl}-4-(trifluoromethyl)pyrimidin-2-amine], the IC50 lay within 100 to 1000 nM.

Consider `Cc1cc(Nc2nccc(C(F)(F)F)n2)cc(-c2cnc3c(c2)OCCN3C)c1` [Example 2.55, N-[3-methyl-5-(4-methyl-3,4-dihydro-2H-pyrido[3,2-b][1,4]oxazin-7-yl)phenyl]-4-(trifluoromethyl)pyrimidin-2-amine], for which the IC50 is below 100 nM.

For the compound `Cc1cc(Nc2nccc(C(F)(F)F)n2)cc(-c2cncc(C#N)c2)c1` [Example 2.56, 5-(3-methyl-5-{[4-(trifluoromethyl)pyrimidin-2-yl]amino}phenyl)pyridine-3-carbonitrile], the IC50 was below 100 nM.

In the case of `Cc1cc(Nc2nccc(C(F)(F)F)n2)cc(-c2cccnc2)c1` [Example 2.57, N-(3-methyl-5-pyridin-3-ylphenyl)-4-(trifluoromethyl)pyrimidin-2-amine], the IC50 is below 100 nM.

On to `COc1cncc(-c2cc(C)cc(Nc3nccc(C(F)(F)F)n3)c2)c1` [Example 2.58, N-[3-(5-methoxypyridin-3-yl)-5-methylphenyl]-4-(trifluoromethyl)pyrimidin-2-amine], for which the IC50 is below 100 nM.

Turning to `Cc1cc(Nc2nccc(C(F)(F)F)n2)cc(-c2ccc(N3CCCNCC3)nc2)c1` [Example 2.59, N-{3-[6-(1,4-diazepan-1-yl)pyridin-3-yl]-5-methylphenyl}-4-(trifluoromethyl)pyrimidin-2-amine], the IC50 was below 100 nM.

In the case of `Cc1cc(Nc2nccc(C(F)(F)F)n2)cc(-c2ccc(OC3CCOCC3)nc2)c1` [Example 2.61, N-{3-methyl-5-[6-(tetrahydro-2H-pyran-4-yloxy)pyridin-3-yl]phenyl}-4-(trifluoromethyl)pyrimidin-2-amine], the IC50 fell in the range of 100 to 1000 nM.

Regarding `Cc1cc(Nc2nccc(C(F)(F)F)n2)cc(-c2ccc(NS(=O)(=O)N3CCCCC3)nc2)c1` [Example 2.62, N-[5-(3-methyl-5-{[4-(trifluoromethyl)pyrimidin-2-yl]amino}phenyl)pyridin-2-yl]piperidine-1-sulfonamide], the IC50 was in the range of 100 to 1000 nM.

As to `Cc1cc(Nc2nccc(C(F)(F)F)n2)cc(-c2ccc(CN)nc2)c1` [Example 2.63, N-{3-[6-(aminomethyl)pyridin-3-yl]-5-methylphenyl}-4-(trifluoromethyl)pyrimidin-2-amine], the IC50 was below 100 nM.

On to `COC(=O)c1ccc(-c2cc(C)cc(Nc3nccc(C(F)(F)F)n3)c2)cn1` [Example 2.65, methyl 5-(3-methyl-5-{[4-(trifluoromethyl)pyrimidin-2-yl]amino}phenyl)pyridine-2-carboxylate], for which the IC50 is 100 to 1000 nM.
